# Where “and” joins values, the source holds several entries; their conditions need not be identical. Identical values can stand only once. Counter-ions that a name gives are not always drawn.
# Key:
# OAT3 = target: T1, OAT3 (Homo sapiens, UniProt Q8TCC7); assay: Substrate of OAT3, uptake in HEK293 cells; settings: probe substrate 1 μM
# T1 sequence (Q8TCC7 1-542): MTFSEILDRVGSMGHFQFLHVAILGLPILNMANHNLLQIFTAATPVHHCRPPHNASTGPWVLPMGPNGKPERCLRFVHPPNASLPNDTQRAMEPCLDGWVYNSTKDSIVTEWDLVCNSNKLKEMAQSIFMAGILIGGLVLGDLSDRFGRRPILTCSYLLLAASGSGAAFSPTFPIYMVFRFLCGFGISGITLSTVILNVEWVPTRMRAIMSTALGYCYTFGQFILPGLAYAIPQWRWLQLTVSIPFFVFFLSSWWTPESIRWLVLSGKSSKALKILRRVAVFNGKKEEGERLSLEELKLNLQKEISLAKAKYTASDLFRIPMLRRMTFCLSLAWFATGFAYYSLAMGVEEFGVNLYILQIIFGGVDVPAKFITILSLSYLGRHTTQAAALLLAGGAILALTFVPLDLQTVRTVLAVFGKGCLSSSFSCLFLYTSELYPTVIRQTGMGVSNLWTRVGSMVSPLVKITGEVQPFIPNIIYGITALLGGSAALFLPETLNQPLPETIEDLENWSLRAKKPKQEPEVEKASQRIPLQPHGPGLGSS
# Excerpt: (§1) Vector-transfected HEK cells were used as a control.
# OCT2 [1] = target: T2, OCT2 (Homo sapiens, UniProt O15244); assay: Substrate of OCT2, uptake in HEK293 cells; settings: probe substrate 1 μM
# T2 sequence (O15244 1-555): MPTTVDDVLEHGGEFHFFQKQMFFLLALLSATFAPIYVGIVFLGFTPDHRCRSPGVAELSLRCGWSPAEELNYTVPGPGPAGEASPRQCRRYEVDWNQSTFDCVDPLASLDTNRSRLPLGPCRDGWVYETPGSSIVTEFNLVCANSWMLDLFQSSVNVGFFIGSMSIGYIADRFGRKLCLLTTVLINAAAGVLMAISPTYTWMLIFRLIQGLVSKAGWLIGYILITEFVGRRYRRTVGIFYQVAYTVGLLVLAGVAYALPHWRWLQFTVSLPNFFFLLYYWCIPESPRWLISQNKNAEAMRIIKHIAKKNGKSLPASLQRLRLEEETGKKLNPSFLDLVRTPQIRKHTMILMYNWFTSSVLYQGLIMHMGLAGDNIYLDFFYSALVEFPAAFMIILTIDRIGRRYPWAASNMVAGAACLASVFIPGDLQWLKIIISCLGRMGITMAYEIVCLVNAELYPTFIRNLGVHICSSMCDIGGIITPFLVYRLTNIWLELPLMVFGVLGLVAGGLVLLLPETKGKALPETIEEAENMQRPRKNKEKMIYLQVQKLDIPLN
# Excerpt: as §1
# OCT2 [2] = target: T2, OCT2; assay: OCT2 inhibition, MPP+ uptake in transfected HEK cells; settings: no inhibitor
# CYP2B6 mRNA = CYP2B6 mRNA induction in human hepatocytes (qPCR); settings: phenobarbital 1,000 μM, flumazenil 10 μM
# Experimental: Plateable and inducible cryopreserved human hepatocytes were thawed and isolated in human hepatocyte thawing medium.
# All experiments were performed in triplicate.
# After induction treatment, CYP mRNA expression was measured by qPCR. Total RNA was isolated from the treated cells using the RNeasy® mini kit (Qiagen, Valencia, CA, USA) and treated with RNase-free DNase (Qiagen) following the manufacturer's protocols. The concentration of RNA was determined using a Qubit® Fluorometer with a Qubit RNA HS assay kit (Invitrogen). cDNA was synthesized from up to […] of the total RNA harvested from the cells using a QuantiTect® RT kit (Qiagen). Analysis of CYP gene expression by qPCR (Table 3) was performed using the LightCycler® 480 II System (Roche Diagnostics Corporation, Indianapolis, IN, USA).
# Relative mRNA was expressed as the fold-increase calculated from the normalized mRNA level (2^−ΔΔCt) relative to vehicle control. The percentage of mRNA fold-increase relative to positive control was calculated using the following equation:
# % Induction relative to positive control=100×(mRNATA−mRNAvehicle)/(mRNApositive control−mRNAvehicle)
# human hepatocytes = assay: Cell viability after CYP induction treatment (MTS); settings: controls at induction concentrations
# Experimental: Plateable and inducible cryopreserved human hepatocytes were thawed and isolated in human hepatocyte thawing medium. […] After attachment (4 hours), the medium was changed to fresh hepatocyte culture medium for overnight cell recovery. […] A positive control (100 μM chlorpromazine) was treated in parallel.
# After the CYP induction treatment, the cells were used for cell viability assay. The viability of cells (expressed as the percentage of MTS absorbance relative to vehicle control) was measured as described herein.
# OATP1B1 = OATP1B1 (Homo sapiens, UniProt Q9Y6L6); assay: OATP1B1 inhibition, atorvastatin uptake in transfected HEK cells
# OATP1B3 = OATP1B3 (Homo sapiens, UniProt Q9NPD5); assay: OATP1B3 inhibition, atorvastatin uptake in transfected HEK cells; settings: for Influx Rate of […] Atorvastatin (5 min): OATP1B3-HEK Cells
# [3] = rat, in vivo
# Experimental: This study was comprised of one group of three male CD® (Sprague-Dawley) IGS rats.
# Clinical observations were recorded approximately 1 hour post-dose on Days 1-4 and twice on Day 5, once post-AMX0035 administration and once post-TDF administration. Body weight measurements were recorded prior to randomization and then daily through the end of the study.
# Nominal dose values and nominal sampling times were used for calculations. […] Pharmacokinetic analysis included the determination of Cmax, Tmax, AUClast, Tlast, and AUC0-24.
# [4] = Rat drug-drug interaction study TDF + AMX0035: urine recovery; type: in vivo; settings: for Amount Recovered: male Sprague Dawley rats, oral, total urine, 24 hour collection
# Experimental: Total urine recovery data for Tenofovir, TDF, and PB was calculated for the 24 hour collection period on Days 1 and 5. […] The reported urine recovery data included amount recovered (ng) and percent recovered (%) for […]. Individual and mean Tenofovir, TDF, and PB urine recovery data were presented with SD, reported to three significant figures, and CV %, reported to one decimal place.
# MATE1 = target: T3, MATE1 (Homo sapiens, UniProt Q96FL8); assay: MATE1 inhibition, metformin uptake in transfected HEK cells; settings: no inhibitor
# T3 sequence (Q96FL8 1-570): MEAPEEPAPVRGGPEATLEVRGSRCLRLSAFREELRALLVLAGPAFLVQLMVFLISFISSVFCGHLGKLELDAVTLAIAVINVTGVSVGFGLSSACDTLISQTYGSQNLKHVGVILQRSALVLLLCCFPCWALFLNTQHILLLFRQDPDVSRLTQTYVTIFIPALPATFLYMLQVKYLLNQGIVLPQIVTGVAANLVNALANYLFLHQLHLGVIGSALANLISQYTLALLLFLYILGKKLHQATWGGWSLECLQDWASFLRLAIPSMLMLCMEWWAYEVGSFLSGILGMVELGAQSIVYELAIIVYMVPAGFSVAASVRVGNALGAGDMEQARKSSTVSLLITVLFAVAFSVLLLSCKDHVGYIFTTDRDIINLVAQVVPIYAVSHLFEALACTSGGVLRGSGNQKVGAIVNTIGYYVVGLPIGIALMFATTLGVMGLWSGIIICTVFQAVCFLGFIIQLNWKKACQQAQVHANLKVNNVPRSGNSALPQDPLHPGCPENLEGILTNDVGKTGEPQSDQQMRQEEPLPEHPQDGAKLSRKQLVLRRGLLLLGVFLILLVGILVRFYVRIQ
# MATE2K = MATE2K (Homo sapiens, UniProt Q86VL8); assay: MATE2K inhibition, metformin uptake in transfected HEK cells; settings: no inhibitor
# [5] = Vector Control Cells, replicates
# OATP1B1, sequence (Q9Y6L6 whole entry): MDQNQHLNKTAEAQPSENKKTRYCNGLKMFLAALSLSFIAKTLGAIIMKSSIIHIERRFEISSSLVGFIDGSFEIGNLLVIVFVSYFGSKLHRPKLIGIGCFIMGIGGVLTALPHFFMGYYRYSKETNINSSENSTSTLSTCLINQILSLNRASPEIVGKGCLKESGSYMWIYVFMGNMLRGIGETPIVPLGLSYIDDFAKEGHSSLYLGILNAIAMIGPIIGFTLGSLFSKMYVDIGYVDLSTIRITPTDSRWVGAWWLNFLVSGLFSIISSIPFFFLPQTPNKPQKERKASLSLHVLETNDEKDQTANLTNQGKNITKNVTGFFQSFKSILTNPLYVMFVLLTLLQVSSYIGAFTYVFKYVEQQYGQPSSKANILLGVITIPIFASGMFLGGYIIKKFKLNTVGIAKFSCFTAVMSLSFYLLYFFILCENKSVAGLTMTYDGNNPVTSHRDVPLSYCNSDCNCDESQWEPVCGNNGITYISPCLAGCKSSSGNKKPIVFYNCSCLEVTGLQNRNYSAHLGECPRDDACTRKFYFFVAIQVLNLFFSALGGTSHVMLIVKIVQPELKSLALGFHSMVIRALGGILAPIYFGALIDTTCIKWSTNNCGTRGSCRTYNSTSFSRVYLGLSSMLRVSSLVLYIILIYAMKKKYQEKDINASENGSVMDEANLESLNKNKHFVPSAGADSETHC
# MATE2K, sequence (Q86VL8 1-566 isoform Q86VL8-3): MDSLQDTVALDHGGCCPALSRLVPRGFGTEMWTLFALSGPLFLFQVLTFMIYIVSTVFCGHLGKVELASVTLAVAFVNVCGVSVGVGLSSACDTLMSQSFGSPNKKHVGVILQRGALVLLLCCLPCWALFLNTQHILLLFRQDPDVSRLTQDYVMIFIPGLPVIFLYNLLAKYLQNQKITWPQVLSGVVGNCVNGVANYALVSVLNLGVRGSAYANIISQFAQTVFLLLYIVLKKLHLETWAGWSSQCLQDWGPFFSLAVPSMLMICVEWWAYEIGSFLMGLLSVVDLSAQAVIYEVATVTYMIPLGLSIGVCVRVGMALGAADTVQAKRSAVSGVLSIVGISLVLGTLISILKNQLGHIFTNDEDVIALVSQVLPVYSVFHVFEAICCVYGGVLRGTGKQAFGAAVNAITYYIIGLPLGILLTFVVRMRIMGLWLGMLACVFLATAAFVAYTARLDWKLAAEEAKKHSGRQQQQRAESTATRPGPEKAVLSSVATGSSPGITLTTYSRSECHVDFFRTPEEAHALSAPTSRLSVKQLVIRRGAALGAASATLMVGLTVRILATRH
# OATP1B3, sequence (Q9NPD5 whole entry): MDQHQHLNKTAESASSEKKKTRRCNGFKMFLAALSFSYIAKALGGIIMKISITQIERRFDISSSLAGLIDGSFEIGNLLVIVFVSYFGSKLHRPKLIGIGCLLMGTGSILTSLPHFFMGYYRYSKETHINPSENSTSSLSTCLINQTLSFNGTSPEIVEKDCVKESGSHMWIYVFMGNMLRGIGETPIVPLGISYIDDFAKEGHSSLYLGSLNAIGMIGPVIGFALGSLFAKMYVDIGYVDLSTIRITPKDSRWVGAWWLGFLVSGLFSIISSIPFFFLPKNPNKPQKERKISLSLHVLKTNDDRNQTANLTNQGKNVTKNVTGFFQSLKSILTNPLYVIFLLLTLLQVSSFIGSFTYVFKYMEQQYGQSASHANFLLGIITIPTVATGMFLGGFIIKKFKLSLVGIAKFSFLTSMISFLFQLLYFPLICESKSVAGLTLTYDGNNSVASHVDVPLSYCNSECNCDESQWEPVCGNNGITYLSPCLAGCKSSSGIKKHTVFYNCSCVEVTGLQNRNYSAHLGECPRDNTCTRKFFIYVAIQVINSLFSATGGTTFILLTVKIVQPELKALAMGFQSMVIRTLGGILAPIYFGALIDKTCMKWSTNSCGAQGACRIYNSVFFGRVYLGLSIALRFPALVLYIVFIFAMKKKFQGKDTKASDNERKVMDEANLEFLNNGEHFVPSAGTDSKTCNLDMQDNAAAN
structure (smiles),measurement,setting,value
C[C@]12CC[C@@H]3c4ccc(OS(=O)(=O)O)cc4CC[C@H]3[C@@H]1CCC2=O [3H-estrone-3-sulfate],Fold uptake over the vector control by OAT3,OAT3,25.9 fold
CN(C)C(N)=NC(=N)N [14C-metformin],Fold uptake over the vector control by OCT2,OCT2 [1],43.7 fold
"C[n+]1ccc(-c2ccccc2)cc1 [MPP+, 1-methyl-4-phenylpyridinium]",Net Influx Rate of 5 μM MPP+,OCT2 [2]; OCT2,847 pmol/mg protein/minute
same,Influx rate ratio (OCT2 over vector control),OCT2 [2],48.9
same,Influx Rate of 5 μM MPP+ (2 min),"OCT2 [2]; OCT2-HEK Cells, Average",864 pmol/mg protein/minute
same,Influx Rate of 5 μM MPP+ (2 min),"OCT2 [2]; OCT2-HEK Cells, replicates",896 pmol/mg protein/minute and 833 pmol/mg protein/minute
same,Influx Rate Ratio of MPP+,OCT2 [2]; OCT2 over vector control,48.9
same,Influx Rate of 5 μM MPP+ (2 min),"OCT2 [2]; Vector Control Cells, Average",17.7 pmol/mg protein/minute
same,Influx Rate of 5 μM MPP+ (2 min),OCT2 [2]; [5],19.0 pmol/mg protein/minute and 16.3 pmol/mg protein/minute
"CCC1(c2ccccc2)C(=O)NC(=O)NC1=O [Phenobarbital, phenobarbital]",% induction relative to positive control,CYP2B6 mRNA; donor 1,100%
same,"CYP2B6 mRNA fold-increase, mean",CYP2B6 mRNA; donor 1,21.8 fold
same,% induction relative to positive control,CYP2B6 mRNA; donor 2,100%
same,"CYP2B6 mRNA fold-increase, mean",CYP2B6 mRNA; donor 2,39.6 fold
same,% induction relative to positive control,CYP2B6 mRNA; donor 3,100%
same,"CYP2B6 mRNA fold-increase, mean",CYP2B6 mRNA; donor 3,7.36 fold
same,% MTS absorbance relative to vehicle control,human hepatocytes; donor 1,97.7%
same,"Formazan absorbance, mean (n=6)",human hepatocytes; donor 1,0.417
same,% MTS absorbance relative to vehicle control,human hepatocytes; donor 2,98.8%
same,"Formazan absorbance, mean (n=6)",human hepatocytes; donor 2,0.504
same,% MTS absorbance relative to vehicle control,human hepatocytes; donor 3,108%
same,"Formazan absorbance, mean (n=6)",human hepatocytes; donor 3,0.320
"CO[C@H]1/C=C/O[C@@]2(C)Oc3c(C)c([O-])c4c(O)c(cc(O)c4c3C2=O)NC(=O)/C(C)=C\C=C\[C@H](C)[C@H](O)[C@@H](C)[C@@H](O)[C@@H](C)[C@H](OC(C)=O)[C@@H]1C.[Na+] [RSV, rifamycin SV]",Influx Rate of […] Atorvastatin (5 min),"OATP1B1; 10 μM RSV, OATP1B1-HEK Cells, Average",0.702 pmol/mg protein/minute
same,Influx Rate of […] Atorvastatin (5 min),"OATP1B1; 10 μM RSV, OATP1B1-HEK Cells, replicates",0.724 pmol/mg protein/minute and 0.681 pmol/mg protein/minute
same,Influx Rate of […] Atorvastatin (5 min),"OATP1B1; 10 μM RSV, Vector Control Cells, Average",0.518 pmol/mg protein/minute
same,Influx Rate of […] Atorvastatin (5 min),"OATP1B1; 10 μM RSV, Vector Control Cells, replicates",0.496 pmol/mg protein/minute and 0.541 pmol/mg protein/minute
same,Net Influx Rate of […] Atorvastatin,"OATP1B1; OATP1B1, 10 μM RSV",0.184 pmol/mg protein/minute
same,Percentage Inhibition,"OATP1B1; OATP1B1, 10 μM RSV",96.7%
same,% inhibition of atorvastatin uptake,OATP1B1; known inhibitor,96.7%
same,Influx Rate of […] Atorvastatin (5 min),"OATP1B3; 10 μM RSV, Average",0.573 pmol/mg protein/minute
same,Influx Rate of […] Atorvastatin (5 min),"OATP1B3; 10 μM RSV, replicates",0.576 pmol/mg protein/minute and 0.571 pmol/mg protein/minute
same,Net Influx Rate of […] Atorvastatin,"OATP1B3; OATP1B3, 10 μM RSV",0.0551 pmol/mg protein/minute
same,Percentage Inhibition,"OATP1B3; OATP1B3, 10 μM RSV",98.1%
same,% inhibition of atorvastatin uptake,OATP1B3; known inhibitor,98.1%
"CC(C)OC(=O)OCOP(=O)(CO[C@H](C)Cn1cnc2c(N)ncnc21)OCOC(=O)OC(C)C [TDF, Tenofovir Disoproxil Fumarate]",Prodrug in plasma,[3],No prodrug (TDF) was detected in plasma
same,Urine concentrations,"[4]; male, Sprague-Dawley, rat, in vivo","Urine concentrations for PB analysis in all animals on Day 1, for TUDCA analysis in all animals on Days 1 and 5, and for TDF analysis in two animals on Day 1 and one animal on Day 5 were BLQ (<20 mg/mL) so no recovery data was calculated."
C[C@H](Cn1cnc2c(N)ncnc21)OCP(=O)(O)O [Tenofovir],Fold increase of mean AUClast in the presence of AMX0035,[3],2.17 fold
same,Fold increase of mean Cmax in the presence of AMX0035,[3],1.24 fold
same,Individual Tmax,[3],15 min
same,Amount Recovered,"[4]; Day 1, TDF only 25 mg/kg, individual animals",77300 ng and 63200 ng and 234000 ng
same,Amount Recovered,"[4]; Day 1, TDF only 25 mg/kg, mean",125000 ng
same,Amount Recovered,"[4]; Day 5, AMX0035 + TDF 840/25 mg/kg, individual animals",764000 ng and 296000 ng and 99500 ng
same,Amount Recovered,"[4]; Day 5, AMX0035 + TDF 840/25 mg/kg, mean",386000 ng
CN(C)C(=N)N=C(N)N [metformin],Net Influx Rate of 50 μM Metformin,MATE1; MATE1,572 pmol/mg protein/minute
same,Influx rate ratio (MATE1 over vector control),MATE1,43.4
same,Influx Rate of 50 μM Metformin (10 min),"MATE1; MATE1-HEK Cells, Average",586 pmol/mg protein/minute
same,Influx Rate of 50 μM Metformin (10 min),"MATE1; MATE1-HEK Cells, replicates",515 pmol/mg protein/minute and 656 pmol/mg protein/minute
same,Influx Rate Ratio of metformin,MATE1; MATE1 over vector control,43.4
same,Influx Rate of 50 μM Metformin (10 min),"MATE1; Vector Control Cells, Average",13.5 pmol/mg protein/minute
same,Influx Rate of 50 μM Metformin (10 min),MATE1; [5],15.6 pmol/mg protein/minute and 11.3 pmol/mg protein/minute
same,Net Influx Rate of 50 μM Metformin,MATE2K; MATE2K,36.1 pmol/mg protein/minute
same,Influx rate ratio (MATE2K over vector control),MATE2K,2.70
same,Influx Rate of 50 μM Metformin (10 min),"MATE2K; MATE2K HEK Cells, Average",57.4 pmol/mg protein/minute
same,Influx Rate of 50 μM Metformin (10 min),"MATE2K; MATE2K HEK Cells, replicates",54.5 pmol/mg protein/minute and 60.2 pmol/mg protein/minute
same,Influx Rate Ratio of metformin,MATE2K; MATE2K over vector control,2.70
same,Influx Rate of 50 μM Metformin (10 min),"MATE2K; Vector Control Cells, Average",21.3 pmol/mg protein/minute
same,Influx Rate of 50 μM Metformin (10 min),MATE2K; [5],19.6 pmol/mg protein/minute and 22.8 pmol/mg protein/minute

# Source: patent US20240139211A1, “METHODS AND COMPOSITIONS FOR TREATING AMYOTROPHIC LATERAL SCLEROSIS” (Amylyx Pharmaceuticals, Inc., priority 2022, published 2024)
